# According to patent US9487749B2 (priority 2009, dated 2016):
# Read-outs that look alike come from different tables or passages of the source.
# Tests used:
# [1] = system: Streptococcus Pyogenes (Lancefield group A); settings: 18 h
# Streptococcus Pneumonia = settings: Streptococcus pneumoniae, 7 h
compound,measurement,setting,value
"C[S+](C)[O-] [DMSO, Dimethyl sulfoxide]",S. pyogenes viability (%),[1]; 5 %,96.66%
same,Viability of S. pyogenes (%),[1]; 5 %,96.66%
same,S. pyogenes viability (%),[1]; 8 %,9.96%
same,Viability of S. pyogenes (%),[1]; 10 %,14.50%
same,Viability of S. pyogenes (%),[1]; 20 %,5.14%
same,Viability of S. pneumonia,Streptococcus Pneumonia; 5 %,75.45%
same,Viability of S. pneumonia,Streptococcus Pneumonia; 10 %,40.18%
